From patent US20220088016A1, “CANCER TREATMENT USING MULTI-TARGETED KINASE INHIBITOR IN COMBINATION OF PROTEIN KINASE BIOMARKERS” (ZHEJIANG CROWNMAB BIOTECH CO. LTD., priority 2019, published 2022)

Legend:
KIT (V559D, T670I) = KIT (V559D, T670I) (Homo sapiens, UniProt P10721, T670I/V559D); assay: Kinase profiling; format: binding; settings: read-out: % Ctrl @ 1000 nM
NEK6 = biological target: T1, NEK6 (Homo sapiens, UniProt Q9HC98); assay: Kinase profiling; format: binding; settings: read-out: % Ctrl @ 1000 nM
T1 construct: T7 phage fusion (said for most assays); made in house
T1 sequence (Q9HC98 whole entry, the tested form may be a part): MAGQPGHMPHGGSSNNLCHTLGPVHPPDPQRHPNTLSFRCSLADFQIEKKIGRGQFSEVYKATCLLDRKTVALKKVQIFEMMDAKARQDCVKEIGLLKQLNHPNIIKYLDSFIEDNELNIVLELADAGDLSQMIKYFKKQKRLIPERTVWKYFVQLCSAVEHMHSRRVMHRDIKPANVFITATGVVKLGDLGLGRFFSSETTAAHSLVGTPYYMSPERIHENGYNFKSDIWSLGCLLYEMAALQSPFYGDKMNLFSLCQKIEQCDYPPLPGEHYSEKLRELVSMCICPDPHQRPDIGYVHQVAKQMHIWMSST

SRPK2 = SRPK2 (Homo sapiens, UniProt P78362); assay: Kinase profiling; format: binding; settings: read-out: % Ctrl @ 1000 nM
YES = YES (Homo sapiens, UniProt P07947); assay: Kinase profiling; format: binding; settings: read-out: % Ctrl @ 1000 nM
[1] = biological target: ABL1 (H396P)-nonphosphorylated (Homo sapiens, UniProt P00519, H396P); assay: Kinase profiling; format: binding; settings: read-out: % Ctrl @ 1000 nM
SNARK = SNARK (Homo sapiens, UniProt Q9H093); assay: Kinase profiling; format: binding; settings: read-out: % Ctrl @ 1000 nM
ERBB3 = ERBB3 (Homo sapiens, UniProt P21860); assay: Kinase profiling; format: binding; settings: read-out: % Ctrl @ 1000 nM
CDK8 = CDK8 (Homo sapiens, UniProt P49336); assay: Kinase profiling; format: binding; settings: read-out: % Ctrl @ 1000 nM
RIOK3 = RIOK3 (Homo sapiens, UniProt O14730); assay: Kinase profiling; format: binding; settings: read-out: % Ctrl @ 1000 nM
MTOR = biological target: T2, MTOR (Homo sapiens, UniProt P42345); assay: Kinase profiling; format: binding; settings: read-out: % Ctrl @ 1000 nM
T2 construct: T7 phage fusion (said for most assays); made in house

PKAC-alpha = PKAC-alpha (Homo sapiens, UniProt P17612); assay: Kinase profiling; format: binding; settings: read-out: % Ctrl @ 1000 nM
CDK5 = CDK5 (Homo sapiens, UniProt Q00535); assay: Kinase profiling; format: binding; settings: read-out: % Ctrl @ 1000 nM
ZAK = ZAK (Homo sapiens, UniProt Q9NYL2); assay: Kinase profiling; format: binding; settings: read-out: % Ctrl @ 1000 nM
PrKX (h) = biological target: T3, PrKX (h) (Homo sapiens, UniProt P51817); assay: Kinase IC50 (Eurofins KinaseProfiler); format: biochemical
T3 construct: purchased Eurofins
Method: (§1) CBT-102 were tested against each of the selected kinases using the Eurofins standard KinaseProfder assays and following the relevant standard operating procedures. The required volume of the 50× stock of test compound (CBT-102) was added to the assay well, before a reaction mix containing the enzyme and substrate was added. The reaction was initiated by the addition of ATP at the selected concentration. There was no pre-incubation of the compound with the enzyme/substrate mix prior to ATP addition.
(§2) Data are handled using a custom-built in-house analysis software. Results are expressed as kinase activity remaining, as a percentage of the DMSO control. This is calculated using the following formula: […]
(§3) For IC50 determinations, data are analyzed using XLFit version 5.3 (ID Business Solutions).

SAPK2a (h) = biological target: T4, SAPK2a (h) (Homo sapiens, UniProt Q16539); assay: Kinase IC50 (Eurofins KinaseProfiler); format: biochemical
T4 construct: purchased Eurofins
Method: as §1, §2, §3

PKA (h) = biological target: T5, PKA (h) (Homo sapiens, UniProt P17612); assay: Kinase IC50 (Eurofins KinaseProfiler); format: biochemical
T5 construct: purchased Eurofins
Method: as §1, §2, §3

SLK (h) = biological target: T6, SLK (h) (Homo sapiens, UniProt Q9H2G2); assay: Kinase IC50 (Eurofins KinaseProfiler); format: biochemical
T6 construct: purchased Eurofins
T6 sequence (Q9H2G2 whole entry): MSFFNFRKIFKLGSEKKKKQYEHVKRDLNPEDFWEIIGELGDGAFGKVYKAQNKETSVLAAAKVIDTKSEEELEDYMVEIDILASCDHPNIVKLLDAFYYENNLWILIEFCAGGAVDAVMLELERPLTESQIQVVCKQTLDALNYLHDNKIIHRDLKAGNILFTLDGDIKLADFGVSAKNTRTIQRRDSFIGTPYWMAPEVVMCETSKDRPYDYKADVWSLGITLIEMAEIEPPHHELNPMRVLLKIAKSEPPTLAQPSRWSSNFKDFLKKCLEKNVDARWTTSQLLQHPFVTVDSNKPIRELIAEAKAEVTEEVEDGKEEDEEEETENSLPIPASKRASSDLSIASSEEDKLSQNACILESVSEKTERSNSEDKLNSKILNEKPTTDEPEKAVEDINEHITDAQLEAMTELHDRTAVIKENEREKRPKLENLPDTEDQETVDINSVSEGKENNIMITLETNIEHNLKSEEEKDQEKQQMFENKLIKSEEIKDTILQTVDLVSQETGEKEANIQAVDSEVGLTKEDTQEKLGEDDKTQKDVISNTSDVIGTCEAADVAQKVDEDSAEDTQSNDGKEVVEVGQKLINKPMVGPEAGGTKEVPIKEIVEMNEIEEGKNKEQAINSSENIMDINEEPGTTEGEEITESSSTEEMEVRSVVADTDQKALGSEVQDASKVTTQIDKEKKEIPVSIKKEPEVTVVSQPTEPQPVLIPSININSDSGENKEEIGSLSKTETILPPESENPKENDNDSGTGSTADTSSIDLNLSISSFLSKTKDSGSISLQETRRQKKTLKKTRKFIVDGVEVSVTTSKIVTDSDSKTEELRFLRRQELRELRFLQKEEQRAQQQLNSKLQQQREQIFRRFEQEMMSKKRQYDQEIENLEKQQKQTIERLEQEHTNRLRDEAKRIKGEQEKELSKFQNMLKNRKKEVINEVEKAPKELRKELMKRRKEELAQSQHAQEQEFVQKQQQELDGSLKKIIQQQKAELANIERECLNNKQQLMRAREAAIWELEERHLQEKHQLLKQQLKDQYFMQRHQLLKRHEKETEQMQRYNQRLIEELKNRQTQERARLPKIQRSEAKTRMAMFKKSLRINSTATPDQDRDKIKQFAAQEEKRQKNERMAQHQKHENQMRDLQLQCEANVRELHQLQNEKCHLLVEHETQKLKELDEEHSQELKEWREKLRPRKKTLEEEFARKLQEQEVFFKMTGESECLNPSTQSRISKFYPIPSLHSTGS
Method: as §1, §2, §3

Met (h) = biological target: T7, Met (h) (Homo sapiens, UniProt P08581); assay: Kinase IC50 (Eurofins KinaseProfiler); format: biochemical
T7 construct: purchased Eurofins (KinaseProfiler service)
Method: as §1, §2, §3

TAK1 (h) = biological target: T8, TAK1 (h) (Homo sapiens, UniProt O43318); assay: Kinase IC50 (Eurofins KinaseProfiler); format: biochemical
T8 construct: purchased Eurofins
T8 sequence (O43318 1-303 limits assumed): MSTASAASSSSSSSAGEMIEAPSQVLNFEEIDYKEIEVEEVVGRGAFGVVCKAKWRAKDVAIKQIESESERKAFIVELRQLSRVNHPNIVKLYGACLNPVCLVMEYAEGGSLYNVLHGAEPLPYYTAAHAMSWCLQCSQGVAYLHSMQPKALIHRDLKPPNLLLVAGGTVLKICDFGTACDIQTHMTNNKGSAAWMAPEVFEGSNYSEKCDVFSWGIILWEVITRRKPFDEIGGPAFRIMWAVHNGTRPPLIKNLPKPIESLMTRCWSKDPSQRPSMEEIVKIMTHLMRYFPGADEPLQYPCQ
Method: as §1, §2, §3

Ret (V804M) (h) = biological target: T9, Ret (V804M) (h) (Homo sapiens, UniProt P07949, V804M); assay: Kinase IC50 (Eurofins KinaseProfiler); format: biochemical
T9 construct: purchased Eurofins
Method: as §1, §2, §3

Fms (h) (CSF1R) = biological target: T10, Fms (h) (CSF1R) (Homo sapiens, UniProt P07333); assay: Kinase IC50 (Eurofins KinaseProfiler); format: biochemical
T10 construct: purchased Eurofins (KinaseProfiler service)
Method: as §1, §2, §3

MAP4K4 (h) = biological target: T11, MAP4K4 (h) (Homo sapiens, UniProt O95819); assay: Kinase IC50 (Eurofins KinaseProfiler); format: biochemical
T11 construct: purchased Eurofins (KinaseProfiler service)
Method: as §1, §2, §3

cKit (D816V) (h) = biological target: T12, cKit (D816V) (h) (Homo sapiens, UniProt P10721, D816V); assay: Kinase IC50 (Eurofins KinaseProfiler); format: biochemical
T12 construct: purchased Eurofins (KinaseProfiler service)
Method: as §1, §2, §3

TNIK (h) = biological target: T13, TNIK (h) (Homo sapiens, UniProt Q9UKE5); assay: Kinase IC50 (Eurofins KinaseProfiler); format: biochemical
T13 construct: purchased Eurofins
Method: as §1, §2, §3

EphB2 (h) = biological target: T14, EphB2 (h) (Homo sapiens, UniProt P29323); assay: Kinase IC50 (Eurofins KinaseProfiler); format: biochemical
T14 construct: purchased Eurofins (KinaseProfiler service)
Method: as §1, §2, §3

PDGFRα (V561D) (h) = biological target: T15, PDGFRα (V561D) (h) (Homo sapiens, UniProt P16234, V561D); assay: Kinase IC50 (Eurofins KinaseProfiler); format: biochemical
T15 construct: purchased Eurofins (KinaseProfiler service)
T15 sequence (P16234 24-1089 V561D): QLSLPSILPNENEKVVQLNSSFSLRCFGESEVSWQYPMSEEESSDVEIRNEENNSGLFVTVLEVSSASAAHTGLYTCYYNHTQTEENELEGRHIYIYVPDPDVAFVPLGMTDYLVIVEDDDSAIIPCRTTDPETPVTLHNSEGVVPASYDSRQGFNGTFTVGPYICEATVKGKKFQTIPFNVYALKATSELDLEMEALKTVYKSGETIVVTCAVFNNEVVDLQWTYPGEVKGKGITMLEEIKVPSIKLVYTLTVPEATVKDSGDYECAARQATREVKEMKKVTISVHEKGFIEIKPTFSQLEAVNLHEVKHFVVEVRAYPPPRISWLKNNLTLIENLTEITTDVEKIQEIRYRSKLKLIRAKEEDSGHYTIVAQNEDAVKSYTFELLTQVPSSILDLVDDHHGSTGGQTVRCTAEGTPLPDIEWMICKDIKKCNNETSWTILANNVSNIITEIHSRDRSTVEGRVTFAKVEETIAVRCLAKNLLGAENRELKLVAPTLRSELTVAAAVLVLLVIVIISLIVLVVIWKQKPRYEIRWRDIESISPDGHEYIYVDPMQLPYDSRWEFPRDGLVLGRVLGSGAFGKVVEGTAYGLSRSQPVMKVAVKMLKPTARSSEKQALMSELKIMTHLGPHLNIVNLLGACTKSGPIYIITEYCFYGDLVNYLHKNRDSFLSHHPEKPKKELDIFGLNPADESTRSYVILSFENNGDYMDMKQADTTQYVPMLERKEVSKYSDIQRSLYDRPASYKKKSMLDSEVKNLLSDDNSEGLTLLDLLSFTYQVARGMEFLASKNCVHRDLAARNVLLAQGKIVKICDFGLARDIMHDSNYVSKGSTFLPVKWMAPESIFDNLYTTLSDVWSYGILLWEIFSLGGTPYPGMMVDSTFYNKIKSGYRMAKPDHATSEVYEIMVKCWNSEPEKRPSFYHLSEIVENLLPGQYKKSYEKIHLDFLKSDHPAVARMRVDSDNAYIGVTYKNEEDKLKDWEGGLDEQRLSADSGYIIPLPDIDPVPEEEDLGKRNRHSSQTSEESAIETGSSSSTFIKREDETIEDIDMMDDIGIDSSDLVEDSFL
Method: as §1, §2, §3

p70S6K (h) = biological target: T16, p70S6K (h) (Homo sapiens, UniProt P23443); assay: Kinase IC50 (Eurofins KinaseProfiler); format: biochemical
T16 construct: purchased Eurofins (KinaseProfiler service)
Method: as §1, §2, §3

SAPK2b (h) = biological target: T17, SAPK2b (h) (Homo sapiens, UniProt Q15759); assay: Kinase IC50 (Eurofins KinaseProfiler); format: biochemical
T17 construct: purchased Eurofins
Method: as §1, §2, §3

c-RAF (h) = biological target: T18, c-RAF (h) (Homo sapiens, UniProt P04049); assay: Kinase IC50 (Eurofins KinaseProfiler); format: biochemical
T18 construct: purchased Eurofins (KinaseProfiler service)
T18 sequence (P04049 whole entry): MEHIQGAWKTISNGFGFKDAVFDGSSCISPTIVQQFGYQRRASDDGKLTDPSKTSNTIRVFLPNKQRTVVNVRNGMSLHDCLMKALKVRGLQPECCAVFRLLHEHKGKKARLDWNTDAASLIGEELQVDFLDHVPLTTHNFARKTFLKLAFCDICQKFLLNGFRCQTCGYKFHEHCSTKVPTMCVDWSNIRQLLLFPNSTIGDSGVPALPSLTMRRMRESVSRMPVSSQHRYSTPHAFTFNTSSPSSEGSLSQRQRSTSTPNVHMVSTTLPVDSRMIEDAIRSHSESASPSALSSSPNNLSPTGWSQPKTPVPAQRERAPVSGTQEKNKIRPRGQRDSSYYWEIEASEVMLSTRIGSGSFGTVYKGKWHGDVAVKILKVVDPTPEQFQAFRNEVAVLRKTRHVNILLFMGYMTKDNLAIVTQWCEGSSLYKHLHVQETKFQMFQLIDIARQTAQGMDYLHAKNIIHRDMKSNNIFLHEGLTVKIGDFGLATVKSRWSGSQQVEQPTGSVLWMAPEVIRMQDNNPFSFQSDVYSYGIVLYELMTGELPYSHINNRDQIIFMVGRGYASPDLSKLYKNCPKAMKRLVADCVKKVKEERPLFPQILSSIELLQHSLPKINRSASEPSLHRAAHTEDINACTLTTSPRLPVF
Method: as §1, §2, §3

DDR1 (h) = biological target: T19, DDR1 (h) (Homo sapiens, UniProt Q08345); assay: Kinase IC50 (Eurofins KinaseProfiler); format: biochemical
T19 construct: purchased Eurofins (KinaseProfiler service)
Method: as §1, §2, §3

CDK4/cyclinD3 (h) = biological target: T20, CDK4/cyclinD3 (h) (Homo sapiens, UniProt P11802); assay: Kinase IC50 (Eurofins KinaseProfiler); format: biochemical
T20 construct: purchased Eurofins (KinaseProfiler service)
Method: as §1, §2, §3

Flt4 (h) = biological target: T21, Flt4 (h) (Homo sapiens, UniProt P35916); assay: Kinase IC50 (Eurofins KinaseProfiler); format: biochemical
T21 construct: purchased Eurofins (KinaseProfiler service)
T21 sequence (P35916 25-1363): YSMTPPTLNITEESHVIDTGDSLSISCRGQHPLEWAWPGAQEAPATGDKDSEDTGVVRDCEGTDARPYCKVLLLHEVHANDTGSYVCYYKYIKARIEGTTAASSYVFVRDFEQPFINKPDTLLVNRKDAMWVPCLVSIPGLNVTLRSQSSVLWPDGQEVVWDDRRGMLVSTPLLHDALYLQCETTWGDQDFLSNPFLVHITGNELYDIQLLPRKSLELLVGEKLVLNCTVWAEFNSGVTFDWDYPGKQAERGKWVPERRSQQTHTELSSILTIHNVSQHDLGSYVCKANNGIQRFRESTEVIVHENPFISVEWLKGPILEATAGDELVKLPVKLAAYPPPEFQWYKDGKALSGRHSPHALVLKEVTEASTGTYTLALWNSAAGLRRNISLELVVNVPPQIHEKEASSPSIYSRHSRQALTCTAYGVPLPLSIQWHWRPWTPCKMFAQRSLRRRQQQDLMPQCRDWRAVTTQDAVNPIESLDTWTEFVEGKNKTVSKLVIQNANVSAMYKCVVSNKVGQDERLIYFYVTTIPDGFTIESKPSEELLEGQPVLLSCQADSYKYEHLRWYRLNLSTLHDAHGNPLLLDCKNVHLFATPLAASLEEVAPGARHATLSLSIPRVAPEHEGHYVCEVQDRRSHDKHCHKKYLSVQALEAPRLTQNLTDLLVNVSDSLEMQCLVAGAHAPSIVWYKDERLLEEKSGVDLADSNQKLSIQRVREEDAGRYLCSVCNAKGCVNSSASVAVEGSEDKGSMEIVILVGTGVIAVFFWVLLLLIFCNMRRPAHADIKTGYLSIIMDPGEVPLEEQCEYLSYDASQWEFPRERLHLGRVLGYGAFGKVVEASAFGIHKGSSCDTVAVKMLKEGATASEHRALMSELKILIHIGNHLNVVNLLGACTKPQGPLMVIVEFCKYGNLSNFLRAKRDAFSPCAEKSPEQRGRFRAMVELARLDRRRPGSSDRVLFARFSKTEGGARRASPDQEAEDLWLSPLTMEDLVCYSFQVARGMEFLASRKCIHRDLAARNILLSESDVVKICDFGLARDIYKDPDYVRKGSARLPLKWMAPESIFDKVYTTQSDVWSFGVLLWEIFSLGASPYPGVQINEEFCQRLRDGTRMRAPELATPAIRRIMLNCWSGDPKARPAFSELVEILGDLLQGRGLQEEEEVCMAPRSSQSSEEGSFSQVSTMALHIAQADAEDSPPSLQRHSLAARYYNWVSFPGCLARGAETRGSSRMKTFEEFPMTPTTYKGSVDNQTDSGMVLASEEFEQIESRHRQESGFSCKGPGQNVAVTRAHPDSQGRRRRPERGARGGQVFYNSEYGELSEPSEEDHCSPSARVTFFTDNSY
Method: as §1, §2, §3

MKNK1 = biological target: T22, MKNK1 (Homo sapiens, UniProt Q9BUB5); assay: Kinase profiling; format: binding; settings: read-out: % Ctrl @ 1000 nM
T22 construct: T7 phage fusion (stated for most kinases of the panel only); made in house; host or cells: T7 phage in E. coli (BL21-derived) or HEK-293 cells

RIPK1 = RIPK1 (Homo sapiens, UniProt Q13546); assay: Kinase profiling; format: binding; settings: read-out: % Ctrl @ 1000 nM

## Cc1cc(Oc2cc(NC(=O)C3CC3)ncn2)ccc1NC(=O)Nc1ccc(Cl)c(C(F)(F)F)c1 [CBT-102]
KIT (V559D, T670I)
  remaining activity at 1 µM: 0.3%
NEK6
  remaining activity at 1 µM: 100%
SRPK2
  remaining activity at 1 µM: 100%
YES
  remaining activity at 1 µM: 55%
[1]
  remaining activity at 1 µM: 20%
SNARK
  remaining activity at 1 µM: 100%
ERBB3
  remaining activity at 1 µM: 100%
CDK8
  remaining activity at 1 µM: 14%
RIOK3
  remaining activity at 1 µM: 65%
MTOR
  remaining activity at 1 µM: 94%
PKAC-alpha
  remaining activity at 1 µM: 97%
CDK5
  remaining activity at 1 µM: 92%
ZAK
  remaining activity at 1 µM: 5.5%
PrKX (h)
  IC50: > 10 µM
SAPK2a (h)
  IC50: 0.18 µM
PKA (h)
  IC50: > 10 µM
SLK (h)
  IC50: 0.879 µM
Met (h)
  IC50: 2.86 µM
TAK1 (h)
  IC50: 0.481 µM
Ret (V804M) (h)
  IC50: 0.693 µM
Fms (h) (CSF1R)
  IC50: 0.043 µM
MAP4K4 (h)
  IC50: 0.763 µM
cKit (D816V) (h)
  IC50: > 10 µM
TNIK (h)
  IC50: 0.113 µM
EphB2 (h)
  IC50: 0.418 µM
PDGFRα (V561D) (h)
  IC50: 0.028 µM
p70S6K (h)
  IC50: > 10 µM
SAPK2b (h)
  IC50: 0.07 µM
c-RAF (h)
  IC50: 0.031 µM
DDR1 (h)
  IC50: 0.034 µM
CDK4/cyclinD3 (h)
  IC50: > 10 µM
Flt4 (h)
  IC50: 0.008 µM
MKNK1
  remaining activity at 1 µM: 100%
RIPK1
  remaining activity at 1 µM: 95%
